Experimental data published in patent US7439207B2, “2,6 substituted pyridine-3-carbonyl derivatives serving as plant protection agents having herbicidal action” (Bayer CropScience AG, priority 2002, dated 2008).

What was measured:
[1] = logP determination by HPLC on reversed-phase column (C 18), EEC Directive 79/831 Annex V.A8; format: physicochemical; conditions: reversed-phase HPLC column (C 18); printed in text without mark a) or b)
Procedure: The logP values given in the table were determined in accordance with EEC Directive 79/831 Annex V.A8 by HPLC (High Performance Liquid Chromatography) using a reversed-phase column (C 18). Temperature: 43° C. (a) Mobile phases for the determination in the acidic range: 0.1% aqueous phosphoric acid, acetonitrile; linear gradient from 10% acetonitrile to 90% acetonitrile—corresponding measurement results in Table 1 are marked ^a). (b) Mobile phases for the determination in the neutral range: 0.01 molar aqueous phosphate buffer solution, acetonitrile; linear gradient from 10% acetonitrile to 90% acetonitrile—corresponding measurement results in Table 1 are marked ^b). Calibration was carried out using unbranched alkan-2-ones (having 3 to 16 carbon atoms) with known logP values (determination of the logP values by the retention times using linear interpolation between two successive alkanones).

weeds [2] = assay: Post-emergence test (Example B), activity against weeds; format: in vivo; conditions: test plants of 5-15 cm sprayed, rated after three weeks
Procedure: Post-Emergence Test • Solvent: 5 parts by weight of acetone • Emulsifier: 1 part by weight of alkylaryl polyglycol ether
(§1) To produce a suitable preparation of active compound, 1 part by weight of active compound is mixed with the stated amount of solvent, the stated amount of emulsifier is added and the concentrate is diluted with water to the desired concentration.
Test plants of a height of 5-15 cm are sprayed with the preparation of active compound such that the particular amounts of active compound desired are applied per unit area. The concentration of the spray liquor is chosen such that the particular amounts of active compound desired are applied in 1 000 1 l of water/ha.
After three weeks, the degree of damage to the plants is rated in % damage in comparison to development of the untreated control.
The figures denote: • 0%=no effect (like untreated control) • 100%=total destruction

weeds [3] = assay: Pre-emergence test (Example A), activity against weeds; format: in vivo; conditions: soil sprayed 24 hours after sowing, rated after three weeks
Procedure: Pre-Emergence Test • Solvent: 5 parts by weight of acetone • Emulsifier: 1 part by weight of alkylaryl polyglycol ether
as §1
Seeds of the test plants are sown in normal soil. After 24 hours, the soil is sprayed with the preparation of active compound such that the particular amount of active compound desired is supplied per unit area. The concentration of active compound in the spray liquor is chosen such that the particular amount of active compound desired is applied in 1000 litres of water per hectare.
After three weeks, the degree of damage to the plants is rated in % damage in comparison to the development of the untreated control. The figures denote: • 0%=no effect (like untreated control) • 100%=total destruction

Q: For `CN1CCN(Cc2nc(C(F)(F)F)ccc2C(=O)C2C(=O)CCCC2=O)C1=O` [Example 1, 2-[2-(3-methyl-2-oxoimidazolidin-1-ylmethyl)-6-trifluoromethylpyridine-3-carbonyl]cyclohexane-1,3-dione], which chromatographic logP [1] is on record?
A: 2.14

Q: What about the activity against weeds (weeds [2]) of the same molecule?
A: strong activity

Q: What about the activity against weeds (weeds [3]) of the same molecule?
A: strong activity

Q: With `CN1CCN(Cc2nc(C(F)(F)F)ccc2C(=O)O)C1=O` [Example II-1, 6-trifluoromethyl-2-(3-methyl-2-oxoimidazolidin-1-ylmethyl)nicotinic acid] as the molecule, how does the chromatographic logP [1] read?
A: 1.62
